Test results taken from article PMC4552634, “A New Set of Chemical Starting Points with Plasmodium falciparum Transmission-Blocking Potential for Antimalarial Drug Discovery” (PLoS ONE, 2015).

System: P. falciparum stage V gametocytes
Assay: microbe, parasite or virus in culture
Parameters: BacTiter-Glo ATP luminescence viability of purified stage V gametocytes in 384-well plates, per cent inhibition versus DMSO
Conditions: 48 h, 5 µM; inhibitor

Row | SMILES | % Inhibition
1 | CN(C)CCN1CCN(CCCN2c3ccccc3Sc3ccc(C(F)(F)F)cc32)CC1 [TCMDC-142257] | 92.65%

Same assay, conditions: Plasmodium falciparum, 48 h, read-out: % Inhibition

Row | SMILES | inhibition at 5 µM
2 | Cc1cc(N/N=C/c2cccc([N+](=O)[O-])c2)c2cc(F)ccc2n1 [TCMDC-142166] | -21.6%
3 | Cc1cc(F)ccc1Nc1nc(N(C)c2ccccc2)c2cccc(OCCO)c2n1 [TCMDC-142334] | 32.7%
4 | FC(F)(F)c1ccc2nccc(NN=CC=Cc3ccccc3)c2c1 [TCMDC-142153] | -25.7%
5 | CCOc1ccc2c(NN=Cc3ccc(OC)c(OC)c3)cc(C)nc2c1 [TCMDC-142206] | 95.7%
6 | CCOc1ccc2c(N/N=C/c3cccc([N+](=O)[O-])c3)cc(C)nc2c1 [TCMDC-142195] | 115%
7 | CCCCCCc1cc(OC)c(OC)cc1C(C)Nc1ccnc2cc(Cl)ccc12 (centres unmarked) [TCMDC-142247] | -55.2%
8 | CCCC(=O)c1cnc2c(OCCCc3c[nH]cn3)cccc2c1Nc1c(C)cccc1C [TCMDC-142338] | 28.2%
9 | COc1ccc(C=NNc2cc(C)nc3ccccc23)c(OC)c1 [TCMDC-142196] | 98.4%
10 | COc1cccc2c(NN=Cc3cccc(F)c3)ccnc12 [TCMDC-142107] | 74.3%
11 | CCCCN(CCCC)C(=O)CC(O)c1cc2c(Cl)cc(Cl)cc2c2cc(C(F)(F)F)ccc12 (centres unmarked) [TCMDC-142317] | 14.8%
12 | CCCC(C(=O)OCCNC)(c1ccccc1)c1ccccc1 [TCMDC-142275] | 48.4%
13 | O=[N+]([O-])c1cccc(/C=N/Nc2ccnc3ccc(C(F)(F)F)cc23)c1 [TCMDC-142150] | 7.31%
14 | O=[N+]([O-])c1ccccc1C=NNc1c2c(nc3ccccc13)CCCC2 [TCMDC-142202] | -53.6%
15 | Nc1c2c(nc3ccc(C(=O)Nc4cc(I)c(O)c(I)c4)cc13)CCCC2 [TCMDC-142292] | -1.08%
16 | CCCCc1ccc2[nH]cc(C(=O)OCC)c(=O)c2c1 [TCMDC-142243] | 33.5%
17 | COc1ccc(C=NNc2cc(C)nc3ccccc23)c2ccccc12 [TCMDC-142185] | 93.9%
18 | CCCCN(CCCC)Cc1cc(Nc2ccnc3cc(Cl)ccc23)ccc1O [TCMDC-142279] | -8.89%

Row | SMILES | inhibition at 5 µM
19 | CNc1nc(Nc2ccccc2C)nc2ccccc12 [TCMDC-142325] | 50.8%
20 | CCOc1ccc2c(NN=Cc3ccccn3)cc(C)nc2c1 [TCMDC-142187] | 20.9%
21 | COc1ccccc1CNc1nc(Nc2ccccc2C)nc2ccccc12 [TCMDC-142330] | 93.6%
22 | CCOc1ccc2c(NN=Cc3ccccc3OC)cc(C)nc2c1 [TCMDC-142203] | 87.4%
23 | COc1ccccc1-c1nc2nc(N)nc(N)c2nc1-c1ccccc1OC [TCMDC-142250] | 16.7%
24 | Nc1cc(-c2ccc3ccccc3c2)nc2ccccc12 [TCMDC-142281] | 1.22%
25 | CCCCOP(=O)(OCCCC)C(=Cc1ccc(O)c2ccccc12)P(=O)(OCCCC)OCCCC [TCMDC-142336] | -25.7%
26 | Cc1ccccc1Nc1nc(NCc2ccccc2)nc2ccccc12 [TCMDC-142319] | 98.9%
27 | CCCCCCN(CCCCCC)CC(O)c1c(OC)ccc2ccccc12 (centres unmarked) [TCMDC-142248] | -34.9%
28 | Cc1cc(N/N=C/c2ccccc2[N+](=O)[O-])c2cc(C(F)(F)F)ccc2n1 [TCMDC-142157] | 4.83%
29 | Cc1cc(NN=Cc2ccc(Cl)cc2)c2cc(C(F)(F)F)ccc2n1 [TCMDC-142155] | -3.11%
30 | COc1cc(OC)c(OC)cc1C=NNc1cc(C)nc2ccccc12 [TCMDC-142198] | 100%
31 | CCOc1ccc2c(NN=Cc3ccccc3F)cc(C)nc2c1 [TCMDC-142193] | 98.2%
32 | CCN(Cc1ccccc1)CC(O)c1ccc(Cl)c(Cl)c1 (centres unmarked) [TCMDC-142226] | 14.8%
33 | FC(F)(F)c1ccc2nccc(NN=Cc3ccc(Cl)cc3)c2c1 [TCMDC-142103] | 1.69%
34 | CCCCCCCCNCC(O)c1ccc(Cl)c(Cl)c1 (centres unmarked) [TCMDC-142225] | 17.7%

Same assay, conditions: Plasmodium falciparum, 48 h; read-out: % Inhibition

Row | SMILES | inhibition at 5 µM
35 | CCCCCCC(CC)c1cc(O)c2c(c1)OC(C)(C)c1ccncc1-2 (centres unmarked) [TCMDC-142258] | -39.1%
